Columns and labels:
[1] = test system: auxin receptor mutant tir1; experiment: Effect of activators on the auxin receptor mutant tir1 compared with wild type; assay type: in vivo, Arabidopsis thaliana; conditions: tir1 mutant vs wild type, FIG. 13
Source text: FIG. 13: Effect of activators on the auxin receptor mutant TIR1 compared with wild type.

[2] = test system: auxin signaling mutants; experiment: Effect of activators on lateral root density of auxin signaling mutants (Table 2); assay type: in vivo, Arabidopsis thaliana
Source text: Afb1, Afb2, Afb3 and the triple mutant Tirlafb2afb3 were described by Dhamasiri et al. (2005). Tir1 was described by Ruegger et al., (1998); 1aa28 by Rogg et al., (2001); Tir7-1 by Ruegger et al., (1997); the Cyp79b2b3 double mutant by Ljung et al. (2005); the arf7arf19 double mutant by Fukaki et al., (2005); Aux1 by Bennett et al., (1996); Xbat32 by Nodzon et al., (2004), Axr1-12 by Timpte et al., (1995), Slr1 by Fukaki et al., 2002 and Axr3-1 by Collet et al., (2000) and the mutants were obtained from the publishing authors.
For phenotypic analysis, all mutants were grown on vertically oriented square plates (Greiner Labortechnik, Austria) with solid medium derived from standard MS medium. The plates were put in a growth chamber under continuous light (110 μE.m2.s1 photosynthetically active radiation, supplied by cool-white fluorescent tungsten tubes; Osram) at 22° C. Three days after germination, the mutant plants were transferred to medium supplemented with compounds and were left to grow for another 7 days. After this, root length and number of lateral roots were counted using ImageJ 1.34 freeware.

[3] = test system: Wild-type Arabidopsis thaliana; experiment: Dose-response analysis of lateral root density and root length; assay type: in vivo; conditions: dose-response, FIG. 3
Experimental: FIG. 3: Dose-response analysis of class 1 (upper panel) and class 2 (lower panel) activators. Wild-type Arabidopsis thaliana seeds were germinated under standard conditions on agar plates. After 3 days of germination, seedlings were transferred to agar plates containing compound at different concentrations. Lateral root density was measured 10 days after germination. Bars represent standard errors.
FIG. 4: Dose-response analysis of A2, A11, A12, A14 and NAA. Wild-type Arabidopsis thaliana seeds were germinated under standard conditions on agar plates. After 3 days of germination, seedlings were transferred to agar plates containing compound at different concentrations and 1% DMSO. Plants transferred to agar plates containing 1% DMSO and no compound were used as controls. Lateral root density (left panels) and root length (right panels) were measured 10 days after germination. Bars represent standard errors.
For further phenotypic analysis, all plants were grown on vertically oriented square plates (Greiner Labortechnik, Austria) with solid medium derived from standard MS medium under the same conditions. 3 DAG plants were transferred to medium supplemented with compounds and were left to grow for another 7 days. After this, root length and number of LRs were counted using ImageJ 1.34 freeware.
As a subsequent step, the phenotypic effect of the 16 selected activators was determined in a dose-response analysis in which LR density (number of LRs per cm) was quantified (FIG. 3). Based upon potency and structure, two different classes of activators could be identified.

[4] = test system: genes involved in auxin biosynthesis, auxin transport, auxin signaling and cell cycle; experiment: Q-PCR transcript profiling of roots after compound treatment; assay type: in vivo, Arabidopsis thaliana; conditions: 30 μM; 6 hrs or 24 hrs treatment
Experimental: FIG. 5: Transcript profiling of roots of wild-type Arabidopsis thaliana plants after 6 hrs or 24 hrs treatment with A2 (upper panel), A14 (middle panel) or A11 (lower panel) at a concentration of 30 μM.
RNA was extracted with the RNeasy kit. Poly(dT) cDNA was prepared from […] of total RNA with Superscript III reverse transcriptase (Invitrogen) and quantified on an LightCycler 480 apparatus (Roche) with the SYBR Green I Master kit (Roche) according to the manufacturers instructions. Target quantifications were performed with specific primer pairs designed with the Beacon Designer 4.0 (Premier Biosoft International). All PCRs were performed in triplicate. […] The primers used to quantify gene expression levels were: […]
Using Q-PCR, the expression of selected genes involved in auxin biosynthesis, auxin transport, auxin signaling and cell cycle was analyzed in response to compound treatment (FIG. 5).

[5] = target: T1, auxin receptor TIR1 (Arabidopsis thaliana, UniProt Q38825+Q570C0); experiment: In vitro pull-down binding assay to auxin receptor TIR1; conditions: in vitro binding assay (FIG. 2)
T1 construct: made in house; host or cells: wheat germ in vitro transcription/translation (IVTT) extract
Experimental: FIG. 2: In vitro binding assay to analyze binding of the 16 selected activators to the auxin receptor TIR1.
Pull-down assays with wheatgerm-expressed TIR1-Myc were performed by combining […] of IVTT reaction extract with […] of biotinylated domain II peptide and […] of EB containing 1 mg/ml BSA with auxin treatments as indicated. The assays were incubated for 30 min at 4° C. and recovered on streptavidin-agarose. The final processing of pull-down assays including electrophoresis, western transfer and blotting with anti-Myc antibodies has been described in Kepinski and Leyser, 2004.
Earlier studies have shown that sirtinol is metabolized in vivo to NAA (Dai et al., 2005) while IAA, NAA, 2,4-D act by binding directly to the auxin-receptor TIR1 (Kepinski and Leyser, 2005).

T1 sequence (Q570C0 whole entry, other chains not shown): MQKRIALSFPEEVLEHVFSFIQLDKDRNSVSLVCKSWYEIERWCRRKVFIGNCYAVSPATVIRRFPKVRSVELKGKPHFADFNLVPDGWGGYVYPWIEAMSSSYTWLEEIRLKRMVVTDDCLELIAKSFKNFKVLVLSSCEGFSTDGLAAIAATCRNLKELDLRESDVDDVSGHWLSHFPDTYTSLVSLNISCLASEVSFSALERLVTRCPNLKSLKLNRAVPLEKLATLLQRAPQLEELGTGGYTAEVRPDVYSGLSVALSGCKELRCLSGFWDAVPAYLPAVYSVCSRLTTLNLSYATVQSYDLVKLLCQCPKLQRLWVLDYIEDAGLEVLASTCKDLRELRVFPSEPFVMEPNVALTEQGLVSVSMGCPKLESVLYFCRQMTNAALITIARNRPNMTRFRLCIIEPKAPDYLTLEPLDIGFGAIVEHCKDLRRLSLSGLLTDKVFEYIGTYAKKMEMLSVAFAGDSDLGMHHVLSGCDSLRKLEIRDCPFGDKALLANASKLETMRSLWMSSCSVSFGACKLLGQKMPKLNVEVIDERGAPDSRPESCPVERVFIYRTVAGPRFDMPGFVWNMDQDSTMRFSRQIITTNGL

COc1cc(-c2nc3ccccn3c2N=Cc2cccc(Cl)c2Cl)ccc1O [A10, 4-{3-[(2,3-dichlorobenzylidene)amino]imidazo[1,2-a]pyridin-2-yl}-2-methoxyphenol]
TIR1 dependence of the working of the compound [1]: strictly TIR1 dependent
lateral root density ([2]; Afb1-1, 3 uM): 11.79 LR/cm
lateral root density ([2]; Afb2-1, 3 uM): 15.90 LR/cm
lateral root density ([2]; Afb3-1, 3 uM): 17.08 LR/cm
lateral root density ([2]; Arf7Arf19, 3 uM): 0.00 LR/cm
lateral root density ([2]; Arf16, 3 uM): 19.95 LR/cm
lateral root density ([2]; Arf17, 3 uM): 10.80 LR/cm
lateral root density ([2]; Axrt-12, 3 uM): 7.90 LR/cm
lateral root density ([2]; Cyp79, 3 uM): 33.08 LR/cm
lateral root density ([2]; Iaa28-1, 3 uM): 0.00 LR/cm
lateral root density ([2]; Tir1-1, 3 uM): 0.77 LR/cm
lateral root density ([2]; Tir7-1, 3 uM): 8.49 LR/cm
lateral root density ([2]; TirTM, 3 uM): 0.00 LR/cm
lateral root density ([2]; Xbat32, 3 uM): 8.37 LR/cm

COc1ccccc1CNC(=O)C(C)Sc1ccc(Cl)cc1 (stereo not shown) [A14, 2-[(4-chlorophenyl)thio]-N-(2-methoxybenzyl)propanamide]
TIR1 dependence of the working of the compound [1]: strictly TIR1 dependent
potency as activator of LR development (LR density) [3]: most potent activators of class 2
stage of LR initiation at which the effect on gene expression is exerted [4]: early stages of LR initiation (6 h)
lateral root density ([2]; Afb1-1, 30 uM): 24.29 LR/cm
lateral root density ([2]; Afb2-1, 30 uM): 22.38 LR/cm
lateral root density ([2]; Afb3-1, 30 uM): 30.09 LR/cm
lateral root density ([2]; Arf7Arf19, 30 uM): 0.00 LR/cm
lateral root density ([2]; Arf16, 30 uM): 32.75 LR/cm
lateral root density ([2]; Arf17, 30 uM): 32.68 LR/cm
lateral root density ([2]; Axrt-12, 30 uM): 34.01 LR/cm
lateral root density ([2]; Cyp79, 30 uM): 33.25 LR/cm
lateral root density ([2]; Iaa28-1, 30 uM): 20.71 LR/cm
lateral root density ([2]; Tir1-1, 30 uM): 0.52 LR/cm
lateral root density ([2]; Tir7-1, 30 uM): 33.41 LR/cm
lateral root density ([2]; TirTM, 30 uM): 0.00 LR/cm
lateral root density ([2]; Xbat32, 30 uM): 10.88 LR/cm

O=C(O)C1SCCN1c1ccccc1 (stereo not shown) [A15, 3-phenyl-1,3-thiazolidine-2-carboxylic acid]
binding to TIR1 [5]: could bind to TIR1

Source: patent US8486863B2, “Activators of lateral root formation” (VIB VZW, priority 2006, dated 2013)
